Tests used:
[1] = Cytotoxicity against human L132 cells assessed as cell viability at 10 uM measured after 48 hrs by EZ-Cytox assay relative to control; assay type: cell-based; conditions: read-out: Activity
[2] = system: BT-549; test: Growth inhibition of human BT-549 cells measured after 48 hrs by SRB assay; assay type: functional
[3] = system: A498; test: Growth inhibition of human A498 cells measured after 48 hrs by SRB assay; assay type: functional
[4] = system: HCT-116; test: Cell cycle arrest in human HCT-116 cells assessed as accumulation at sub-G1 phase at 2.5 uM measured after 48 hrs by propidium iodide staining based flow cytometry (reference value: 17%); assay type: functional
[5] = molecular target: Discoidin domain-containing receptor 2 (Homo sapiens) (UniProt Q16832); test: Inhibition of human DDR2 at 10 uM using KKSRGDYMTMQIG as substrate in presence of [gamma-33P]ATP by scintillation counting method relative to control
Discoidin domain-containing receptor 2 (Homo sapiens), sequence (Q16832 whole entry, the tested form may be a part): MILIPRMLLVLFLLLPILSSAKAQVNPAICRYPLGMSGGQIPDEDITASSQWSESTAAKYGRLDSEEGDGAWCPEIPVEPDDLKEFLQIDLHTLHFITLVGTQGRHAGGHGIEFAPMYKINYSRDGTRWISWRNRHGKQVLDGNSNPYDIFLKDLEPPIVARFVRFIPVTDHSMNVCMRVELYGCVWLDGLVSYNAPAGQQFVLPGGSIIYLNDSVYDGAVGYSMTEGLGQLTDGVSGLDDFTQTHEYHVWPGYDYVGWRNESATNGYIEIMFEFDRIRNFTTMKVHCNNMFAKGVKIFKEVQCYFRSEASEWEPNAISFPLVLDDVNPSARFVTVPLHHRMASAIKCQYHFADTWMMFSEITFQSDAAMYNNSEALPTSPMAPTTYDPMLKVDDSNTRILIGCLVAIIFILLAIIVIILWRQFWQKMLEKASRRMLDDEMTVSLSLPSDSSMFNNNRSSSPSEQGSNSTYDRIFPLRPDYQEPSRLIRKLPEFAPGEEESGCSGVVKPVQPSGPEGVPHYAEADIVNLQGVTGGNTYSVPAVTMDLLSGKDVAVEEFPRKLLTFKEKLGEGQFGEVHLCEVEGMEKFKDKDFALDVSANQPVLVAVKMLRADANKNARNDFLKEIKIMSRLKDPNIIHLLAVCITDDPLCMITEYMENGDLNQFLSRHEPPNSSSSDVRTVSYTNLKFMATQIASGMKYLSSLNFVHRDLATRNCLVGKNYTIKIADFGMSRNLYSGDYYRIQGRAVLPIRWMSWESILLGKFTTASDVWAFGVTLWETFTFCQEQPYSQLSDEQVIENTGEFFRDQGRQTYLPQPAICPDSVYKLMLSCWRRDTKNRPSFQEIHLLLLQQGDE

[6] = system: HCT-116; test: Induction of apoptosis in human HCT-116 cells assessed as viable cells at 2.5 uM measured after 24 hrs by Annexin-V Alexa Fluor488/propidium iodide staining based flow cytometry (reference value: 88.1%); assay type: functional; conditions: read-out: Activity
[7] = system: Serine/threonine-protein kinase B-raf (Homo sapiens), P15056 [V600E]; test: Inhibition of human BRAF V600E mutant at 10 uM using MEK1 (K97R) as substrate in presence of [gamma-33P]ATP by scintillation counting method relative to control
Serine/threonine-protein kinase B-raf (Homo sapiens), P15056 [V600E], sequence (P15056 whole entry V600E): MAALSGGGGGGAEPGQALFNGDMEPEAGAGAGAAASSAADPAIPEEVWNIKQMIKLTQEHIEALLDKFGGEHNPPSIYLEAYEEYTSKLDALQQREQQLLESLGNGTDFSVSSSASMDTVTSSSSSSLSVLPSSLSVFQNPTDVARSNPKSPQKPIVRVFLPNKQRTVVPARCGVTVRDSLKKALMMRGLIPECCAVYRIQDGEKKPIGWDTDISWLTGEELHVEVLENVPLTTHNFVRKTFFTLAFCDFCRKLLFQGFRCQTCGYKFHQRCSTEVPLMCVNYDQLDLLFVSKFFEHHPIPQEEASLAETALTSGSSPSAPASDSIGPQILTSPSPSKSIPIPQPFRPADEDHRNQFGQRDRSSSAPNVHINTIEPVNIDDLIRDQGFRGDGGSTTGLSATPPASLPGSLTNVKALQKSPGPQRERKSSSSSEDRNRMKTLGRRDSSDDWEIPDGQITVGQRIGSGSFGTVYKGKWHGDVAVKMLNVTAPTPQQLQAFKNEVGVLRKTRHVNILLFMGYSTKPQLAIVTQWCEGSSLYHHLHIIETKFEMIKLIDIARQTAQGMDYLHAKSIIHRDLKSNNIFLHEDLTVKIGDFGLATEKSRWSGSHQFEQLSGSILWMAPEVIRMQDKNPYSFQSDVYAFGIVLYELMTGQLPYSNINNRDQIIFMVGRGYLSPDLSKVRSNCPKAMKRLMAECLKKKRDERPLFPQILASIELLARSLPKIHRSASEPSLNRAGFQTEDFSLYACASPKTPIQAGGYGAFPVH

[8] = system: HCT-116; test: Cell cycle arrest in human HCT-116 cells assessed as accumulation at S phase at 5 uM measured after 48 hrs by propidium iodide staining based flow cytometry (reference value: 10.4%); assay type: functional
[9] = system: HCT-116; test: Cell cycle arrest in human HCT-116 cells assessed as accumulation at G1/G0 phase at 1.25 uM measured after 48 hrs by propidium iodide staining based flow cytometry (reference value: 52.2%); assay type: functional
[10] = molecular target: Macrophage colony-stimulating factor 1 receptor (Homo sapiens) (UniProt P07333); test: Inhibition of human FMS at 10 uM using poly[Glu:Tyr] (4:1) as substrate in presence of [gamma-33P]ATP by scintillation counting method relative to control
Macrophage colony-stimulating factor 1 receptor (Homo sapiens), sequence (P07333 whole entry): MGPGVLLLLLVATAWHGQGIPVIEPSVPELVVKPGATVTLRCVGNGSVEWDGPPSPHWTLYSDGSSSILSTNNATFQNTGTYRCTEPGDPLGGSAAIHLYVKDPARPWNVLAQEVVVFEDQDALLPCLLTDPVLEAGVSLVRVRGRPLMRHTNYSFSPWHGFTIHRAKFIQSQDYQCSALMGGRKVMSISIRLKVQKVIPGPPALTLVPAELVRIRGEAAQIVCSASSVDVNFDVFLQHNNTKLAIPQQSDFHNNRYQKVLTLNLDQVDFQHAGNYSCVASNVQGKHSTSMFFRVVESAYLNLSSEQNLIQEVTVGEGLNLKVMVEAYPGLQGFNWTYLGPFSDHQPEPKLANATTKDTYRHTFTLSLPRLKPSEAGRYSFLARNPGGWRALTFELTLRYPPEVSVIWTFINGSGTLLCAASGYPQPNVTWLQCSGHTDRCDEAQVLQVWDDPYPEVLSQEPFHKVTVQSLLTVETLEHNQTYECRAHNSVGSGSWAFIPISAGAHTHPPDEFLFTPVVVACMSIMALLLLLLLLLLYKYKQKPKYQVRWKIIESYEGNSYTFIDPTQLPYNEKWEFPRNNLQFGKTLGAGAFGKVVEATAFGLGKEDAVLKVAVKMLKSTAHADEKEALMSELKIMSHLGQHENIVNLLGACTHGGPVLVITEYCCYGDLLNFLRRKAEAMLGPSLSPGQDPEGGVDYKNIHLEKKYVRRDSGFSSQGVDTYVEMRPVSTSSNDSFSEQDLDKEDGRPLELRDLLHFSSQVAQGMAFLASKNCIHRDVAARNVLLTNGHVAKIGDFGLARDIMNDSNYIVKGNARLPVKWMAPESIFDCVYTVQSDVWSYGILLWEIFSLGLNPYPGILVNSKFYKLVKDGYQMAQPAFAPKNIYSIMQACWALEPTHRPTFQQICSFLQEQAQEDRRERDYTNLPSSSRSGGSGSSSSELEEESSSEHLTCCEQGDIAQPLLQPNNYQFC

[11] = system: HCT-116; test: Cell cycle arrest in human HCT-116 cells assessed as accumulation at G2/M phase at 5 uM measured after 48 hrs by propidium iodide staining based flow cytometry (reference value: 20.4%); assay type: functional
[12] = system: HCT-116; test: Cell cycle arrest in human HCT-116 cells assessed as accumulation at sub-G1 phase at 1.25 uM measured after 48 hrs by propidium iodide staining based flow cytometry (reference value: 17%); assay type: functional
[13] = system: HCT-116; test: Cell cycle arrest in human HCT-116 cells assessed as increase in G0/G1-phase accumulation measured after 24 to 48 hrs by propidium iodide staining based flow cytometry; assay type: functional; conditions: dose 1.25-5 µM, time 24-48 hrs
[14] = molecular target: T1, Serine/threonine-protein kinase B-raf (Homo sapiens, UniProt P15056); test: Inhibition of human BRAF using MEK1 (K97R) as substrate in presence of [gamma-33P]ATP by scintillation counting method
T1 sequence (P15056 whole entry): as the sequence (P15056 whole entry V600E) above, with E600V counted along it

[15] = system: OVCAR-5; test: Growth inhibition of human OVCAR-5 cells measured after 48 hrs by SRB assay; assay type: functional
[16] = system: SN12C; test: Growth inhibition of human SN12C cells measured after 48 hrs by SRB assay; assay type: functional
[17] = system: HCT-116; test: Cell cycle arrest in human HCT-116 cells assessed as accumulation at G1/G0 phase at 5 uM measured after 48 hrs by propidium iodide staining based flow cytometry (reference value: 52.2%); assay type: functional
[18] = system: NCI-H23; test: Growth inhibition of human NCI-H23 cells measured after 48 hrs by SRB assay; assay type: functional
[19] = system: HCT-116; test: Cell cycle arrest in human HCT-116 cells assessed as accumulation at G1/G0 phase at 2.5 uM measured after 48 hrs by propidium iodide staining based flow cytometry (reference value: 52.2%); assay type: functional
[20] = system: SW-620; test: Growth inhibition of human SW-620 cells measured after 48 hrs by SRB assay; assay type: functional
[21] = system: HCT-116; test: Induction of apoptosis in human HCT-116 cells assessed as necrotic cells at 2.5 uM measured after 24 hrs by Annexin-V Alexa Fluor488/propidium iodide staining based flow cytometry (reference value: 4.6%); assay type: functional
[22] = system: HCT-116; test: Induction of apoptosis in human HCT-116 cells assessed as late apoptotic cells at 5 uM measured after 24 hrs by Annexin-V Alexa Fluor488/propidium iodide staining based flow cytometry (reference value: 1%); assay type: functional
[23] = Cytotoxicity against African green monkey Vero cells assessed as cell viability at 1 uM measured after 48 hrs by EZ-Cytox assay relative to control; assay type: cell-based; conditions: chlorocebus sabaeus, read-out: Activity
[24] = system: SNB-19; test: Growth inhibition of human SNB-19 cells measured after 48 hrs by SRB assay; assay type: functional
[25] = system: HCT-116; test: Cell cycle arrest in human HCT-116 cells assessed as accumulation at sub-G1 phase at 5 uM measured after 48 hrs by propidium iodide staining based flow cytometry (reference value: 17%); assay type: functional
[26] = molecular target: Epithelial discoidin domain-containing receptor 1 (Homo sapiens, UniProt Q08345); test: Inhibition of human DDR1 at 10 uM using KKSRGDYMTMQIG as substrate in presence of [gamma-33P]ATP by scintillation counting method relative to control
Epithelial discoidin domain-containing receptor 1, sequence (Q08345 whole entry, the tested form may be a part): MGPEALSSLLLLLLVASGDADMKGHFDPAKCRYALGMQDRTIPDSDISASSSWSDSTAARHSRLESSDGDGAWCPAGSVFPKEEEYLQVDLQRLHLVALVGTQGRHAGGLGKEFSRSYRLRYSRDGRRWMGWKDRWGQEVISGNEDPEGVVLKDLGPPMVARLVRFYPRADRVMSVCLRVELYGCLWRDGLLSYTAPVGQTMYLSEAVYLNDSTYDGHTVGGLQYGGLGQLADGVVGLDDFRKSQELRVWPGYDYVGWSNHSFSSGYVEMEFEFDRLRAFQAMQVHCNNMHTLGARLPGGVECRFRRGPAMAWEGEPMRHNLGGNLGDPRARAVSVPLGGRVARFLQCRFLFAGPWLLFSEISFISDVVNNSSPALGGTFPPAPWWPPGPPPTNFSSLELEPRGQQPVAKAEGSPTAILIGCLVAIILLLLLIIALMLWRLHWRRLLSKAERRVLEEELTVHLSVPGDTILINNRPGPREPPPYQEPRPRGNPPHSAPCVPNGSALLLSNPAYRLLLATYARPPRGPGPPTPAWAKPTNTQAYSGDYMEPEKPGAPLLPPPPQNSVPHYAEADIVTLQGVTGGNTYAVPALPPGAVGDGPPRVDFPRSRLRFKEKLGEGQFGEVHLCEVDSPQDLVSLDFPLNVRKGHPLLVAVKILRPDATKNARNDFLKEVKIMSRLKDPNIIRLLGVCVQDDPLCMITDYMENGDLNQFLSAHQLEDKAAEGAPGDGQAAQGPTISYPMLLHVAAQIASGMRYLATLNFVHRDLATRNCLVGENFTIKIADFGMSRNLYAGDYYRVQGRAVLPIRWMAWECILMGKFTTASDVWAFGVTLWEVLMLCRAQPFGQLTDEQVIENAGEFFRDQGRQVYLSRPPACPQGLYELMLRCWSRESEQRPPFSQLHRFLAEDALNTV

[27] = system: UACC-257; test: Growth inhibition of human UACC-257 cells measured after 48 hrs by SRB assay; assay type: functional
[28] = system: MDA-MB-468; test: Growth inhibition of human MDA-MB-468 cells measured after 48 hrs by SRB assay; assay type: functional
[29] = system: HCT-116; test: Cell cycle arrest in human HCT-116 cells assessed as accumulation at G2/M phase at 1.25 uM measured after 48 hrs by propidium iodide staining based flow cytometry (reference value: 20.4%); assay type: functional
[30] = molecular target: T1, Serine/threonine-protein kinase B-raf; test: Inhibition of human BRAF at 10 uM using MEK1 (K97R) as substrate in presence of [gamma-33P]ATP by scintillation counting method relative to control
[31] = system: HCT-116; test: Cell cycle arrest in human HCT-116 cells assessed as accumulation at G1/G0 phase at 1.25 uM measured after 24 hrs by propidium iodide staining based flow cytometry (reference value: 65%); assay type: functional
[32] = system: HCT-116; test: Cell cycle arrest in human HCT-116 cells assessed as accumulation at G1/G0 phase at 5 uM measured after 24 hrs by propidium iodide staining based flow cytometry (reference value: 65%); assay type: functional
[33] = system: HCT-116; test: Cell cycle arrest in human HCT-116 cells assessed as accumulation at S phase at 2.5 uM measured after 24 hrs by propidium iodide staining based flow cytometry (reference value: 7.2%); assay type: functional
[34] = system: HCT-116; test: Cell cycle arrest in human HCT-116 cells assessed as accumulation at G2/M phase at 5 uM measured after 24 hrs by propidium iodide staining based flow cytometry (reference value: 19.2%); assay type: functional
[35] = system: HCT-116; test: Cell cycle arrest in human HCT-116 cells assessed as accumulation at G2/M phase at 1.25 uM measured after 24 hrs by propidium iodide staining based flow cytometry (reference value: 19.2%); assay type: functional
[36] = system: HCT-116; test: Cell cycle arrest in human HCT-116 cells assessed as accumulation at sub-G1 phase at 5 uM measured after 24 hrs by propidium iodide staining based flow cytometry (reference value: 8.7%); assay type: functional

CCN1CCN(c2cc(C(=O)Nc3cccc(Nc4ccc5c(OC)cccc5n4)c3)cc(C(F)(F)F)c2)CC1
viability at 48 h, 10 µM [1]: 68.2%
GI50 [2]: 3.78 µM
GI50 [3]: 4.94 µM
Activity [4]: 20.9%
inhibition [5]: 67.5%
viability at 2.5 µM [6]: 82.9%
inhibition [7]: 94.4%
Activity [8]: 7.4%
Activity [9]: 54.7%
inhibition [10]: 60.7%
Activity [11]: 14.4%
Activity [12]: 21%
Activity [13]: Dose-dependent effect
IC50 [14]: 2.23 µM
GI50 [15]: 2.78 µM
GI50 [16]: 1.39 µM
Activity [17]: 64.1%
GI50 [18]: 3.41 µM
Activity [19]: 57.1%
GI50 [20]: 3.67 µM
Activity [21]: 0.6%
Activity [22]: 0.8%
viability at 48 h, 1 µM [23]: 81.5%
GI50 [24]: 2.1 µM
Activity [25]: 14.1%
inhibition [26]: 94.5%
GI50 [27]: 1.02 µM
GI50 [28]: 0.749 µM
LC50 [28]: 14.6 µM
TGI [28]: 4.05 µM
Activity [29]: 15.5%
inhibition [30]: 94.4%

COc1cccc2nc(Nc3cccc(NC(=O)c4ccc(N5CCN(C)CC5)c(C(F)(F)F)c4)c3)ccc12
viability at 48 h, 10 µM [1]: 66.1%
GI50 [2]: 2.79 µM
GI50 [3]: 1.8 µM
Activity [31]: 66.6%
viability at 2.5 µM [6]: 81.2%
Activity [32]: 71%
Activity [33]: 7.3%
Activity [34]: 13.7%
Activity [13]: Dose-dependent effect
IC50 [14]: 2.94 µM
GI50 [15]: 1.53 µM
GI50 [16]: 1.7 µM
Activity [35]: 15.6%
GI50 [18]: 2.93 µM
GI50 [20]: 0.968 µM
Activity [21]: 8.6%
Activity [22]: 2.2%
viability at 48 h, 1 µM [23]: 86.5%
Activity [36]: 9.1%
GI50 [24]: 1.11 µM
GI50 [27]: 1.36 µM
GI50 [28]: 1.11 µM
LC50 [28]: 18.4 µM
TGI [28]: 3.65 µM

Source: ChEMBL document CHEMBL4706583, “2-Anilinoquinoline based arylamides as broad spectrum anticancer agents with B-RAF/C-RAF kinase inhibitory effects: Design, synthesis, in vitro cell-based and oncogenic kinase assessments” (Eur J Med Chem, 2020)
